Data: ChEMBL document CHEMBL5729069, “4,6 dihydropyrrolo [3,4-C] pyrazole-5 (1H)-carbonitrile derivates for treating cancer” (2022)

Target: Ubiquitin carboxyl-terminal hydrolase 7 (Homo sapiens, UniProt Q93009)
Assay: Biochemical Assay: Dilution plates were prepared at 21 times the final concentration (2100 μM for a final concentration of 100 μM) in 50% DMSO in a 96-well polypropylene V-bottom plate (Greiner #651201). A typical 8-point dilution series would be 100, 30, 10, 3, 1, 0.3, 0.1, 0.03 μM final. Reactions were performed in duplicate in black 384 well plates (small volume, Greiner 784076) in a final reaction volume of 21 μl. Either 1 μl of 50% DMSO or diluted compound was added to the plate. USP7 was diluted in reaction buffer (20 mM Tris, pH 7.5, 100 mM NaCl, 0.05% Tween 20, 0.5 mg/ml BSA, 5 mM—beta mercaptoethanol) to the equivalent of 0.0025 μl/well and 10 μl of diluted USP7 was added to the compound. Enzyme and compound were incubated for 30 min at room temp. Reactions were initiated by the addition of 50 nM of TAMRA labelled peptide linked to ubiquitin via an iso-peptide bond as fluorescence polarisation substrate. Reactions were read immediately after addition of substrate and following a 2 hr incubation at room temperature. Readings were performed on a Pherastar Plus (BMG Labtech). λ Excitation 540 nm; λ Emission 590 nm.

Ubiquitin carboxyl-terminal hydrolase 7, sequence (Q93009 whole entry): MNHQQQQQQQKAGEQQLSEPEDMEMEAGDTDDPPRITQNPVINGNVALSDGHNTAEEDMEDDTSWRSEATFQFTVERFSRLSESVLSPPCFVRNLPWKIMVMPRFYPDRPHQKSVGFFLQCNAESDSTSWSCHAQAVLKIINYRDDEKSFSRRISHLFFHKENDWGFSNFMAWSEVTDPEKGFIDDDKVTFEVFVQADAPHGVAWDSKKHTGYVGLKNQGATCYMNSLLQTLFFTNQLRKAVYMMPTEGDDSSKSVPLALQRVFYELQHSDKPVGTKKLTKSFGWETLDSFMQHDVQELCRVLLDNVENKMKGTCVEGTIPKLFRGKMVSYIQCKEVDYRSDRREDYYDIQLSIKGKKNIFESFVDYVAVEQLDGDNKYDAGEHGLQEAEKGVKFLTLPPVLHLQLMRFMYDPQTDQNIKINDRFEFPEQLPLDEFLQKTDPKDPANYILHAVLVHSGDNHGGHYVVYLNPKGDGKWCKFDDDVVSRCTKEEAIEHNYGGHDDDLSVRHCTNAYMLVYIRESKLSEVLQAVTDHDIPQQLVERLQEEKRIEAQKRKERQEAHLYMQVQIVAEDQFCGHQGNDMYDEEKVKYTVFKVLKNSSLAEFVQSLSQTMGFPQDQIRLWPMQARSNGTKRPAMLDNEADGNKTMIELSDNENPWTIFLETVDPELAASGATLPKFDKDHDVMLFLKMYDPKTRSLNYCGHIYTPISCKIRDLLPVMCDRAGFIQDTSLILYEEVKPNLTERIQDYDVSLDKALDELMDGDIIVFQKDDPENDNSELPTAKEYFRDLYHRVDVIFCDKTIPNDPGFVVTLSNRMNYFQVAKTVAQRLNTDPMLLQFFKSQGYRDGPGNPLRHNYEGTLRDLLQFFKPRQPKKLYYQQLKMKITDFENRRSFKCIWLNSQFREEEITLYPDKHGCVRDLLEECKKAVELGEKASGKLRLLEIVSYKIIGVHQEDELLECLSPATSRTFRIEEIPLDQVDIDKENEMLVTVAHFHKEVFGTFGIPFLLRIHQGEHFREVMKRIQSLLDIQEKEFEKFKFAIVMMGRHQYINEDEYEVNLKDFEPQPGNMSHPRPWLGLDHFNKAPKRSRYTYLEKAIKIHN

IC50 [µM] | SMILES
< 10 | N#CN1Cc2[nH]nc(-c3cccc(N4CCCC4=O)c3)c2C1
< 10 | N#CN1Cc2[nH]nc(-c3cccc(N4CCOC4=O)c3)c2C1
